System: MAP kinase cascade activating protein according to SEQ ID NO: 4, 6, 12, 16, 18, 22, 26, 28, 30, 44, 50, 52, 60, 68, 72, 104, 110, 112, 116, 122, 132, 142, 146 …
Experiment: Screening for inhibitors in 293-EBNA reporter systems expressing MAP kinase cascade activating proteins
Type: cell-based, human
Settings: compound 10 μM; 50 ng expression plasmid; 24 hours; all 27 SEQ ID NO systems
Method: (in the presence of 5% CO2). Then, using FuGENE6 (Roche), 50 ng of each of the expression plasmids obtained in Example 2 above which comprise a gene encoding the MAP kinase cascade activating protein according to SEQ ID NO: 4, 6, 12, 16, 18, 22, 26, 28, 30, 44, 50, 52, 60, 68, 72, 104, 110, 112, 116, 122, 132, 142, 146, 148, 150, 152 or 154 were respectively co-transfected in a well with 60 ng of pFR-Luc ([…]), 0.25 ng of pFA2-Elk1 ([…]), 5 ng of pcDNA 3.1 (+) (INVITROGEN) into which human p38 gene had been incorporated and 30 ng of pcDNA 3.1 (+) (INVITROGEN) into which human JNJ1 β 1 gene had been incorporated. The method used for introduction was in accordance with the attached protocol. After culturing for 2 hours at 37° C., any one of 1000 types of compound that were held in stock, was added to a final concentration of 10 μM per well, and after further culturing for 24 hours at 37° C., reporter activity, which reflects MAP kinase cascade activition, was measured by Picagene LT2 (purchased from Toyo Ink Manufacturing) in accordance with the manufacturer's instructions. Using a well to which no compound was added as a control, compounds were screened to identify a compound which reduced reporter activity in the well to which it was added to 50% or lower. […]

## CN[C@@H]1C[C@H]2O[C@@](C)([C@@H]1OC)n1c3ccccc3c3c4c(c5c6ccccc6n2c5c31)C(=O)NC4 [staurosporine]
  reporter activity relative to control well to which no compound was added: ≤ 50%

From patent US20030092037A1, “Elk1 phosphorylation related gene” (priority 2001, published 2003)
